From paper PMC5296733, “Functional Coupling of Human Microphysiology Systems: Intestine, Liver, Kidney Proximal Tubule, Blood-Brain Barrier and Skeletal Muscle” (Scientific Reports, 2017)

How the values were obtained:
[1] = tested on: vascularized proximal tubule kidney (VPTK) module; test: Vascularized proximal tubule kidney (VPTK) module secretion; conditions: for Excreted into proximal tubule lumen, MPS: Table 2, MPS model
Experimental: (§1) Mass spectrometry was used to measure the concentration of compound and metabolites in the media following exposure in each MPS organ module.
To form the vascularized kidney model, 2 lumens were pre-cast side-by-side in gelling collagen inside the Nortis microfluidic device. Human proximal tubule epithelial cells (PTEC) were seeded on the wall of one lumen channel at an approximate density of 20 × 10^6 cells/mL and were allowed to attach for 1 h. Culture media flow at 30 μl/h was then initiated and maintained for 5 days in order to establish a 100% confluent tubule expressing tight junctions. On day 6, the flow of culture media to the PTEC channel was stopped to allow the second channel seeding at 20 × 10^6 human umbilical vein endothelial cells/mL (HUVEC) and allowed to attach for 30–60 minutes. Parallel media flow of defined DMEM/F-12 (see Supplement) with 2% FBS for the PTEC channel and EGM-2 media for HUVEC channel were initiated at a rate of 30 μl/h. The VPTK devices were allowed to stabilize overnight before conducting test compound treatment.
The media for the PTEC channel remained unchanged. Media perfusion was initiated simultaneously for both channels at a flow rate of 60 μl/h. The effluents from both channels were collected for 6 h. Due to the insensitivity of the TMAO analyte by mass spectrometry, an additional TMAO experiment using EGM-2 media supplemented with 5 mM TMAO was conducted in the VPTK to quantitate the level of TMAO secretion.

[2] = Table 2, clinical; cited from earlier work
[3] = tested on: blood-brain barrier/neurovascular unit (BBB/NVU); test: BBB/NVU module penetration; conditions: TMA experiment; for Concentration in brain neuronal efflux / Concentration in brain vascular efflux: liver-conditioned media, Brain (12 h)
[4] = tested on: differentiated human jejunal enteroids; test: Intestine module: jejunal enteroid Transwell transport and metabolism
Text: as §1
Human jejunal enteroid cultures were isolated from two separate donors as described[59] and maintained in culture as spherical enteroids in Matrigel (Becton Dickinson, Franklin Lakes, NJ) until dissociated and plated as monolayer cultures on collagen IV coated polyethylene terephthalate (PET) Transwell® membrane inserts (Corning, Inc., Corning, NY) (Fig. 1A)[55][59][60][61]. The apical chamber received 100 μl of a 5 × 10^6/mL of the suspended cells in proliferation media. The basolateral chamber received 600 μl of proliferation media. […] Jejunal barrier monolayer with intact tight junctions were established by TEER testing and the restricted diffusion of 4 kD FITC-dextran polymers over the 24 h period (Supplemental Information Supplemental Table S8).
TMA was prepared at a concentration 3 mM by dissolving the neat compound directly into intestinal apical media. […] The dried residue was solubilized in apical media and mixed by sonication in a water bath for 30 s.
All treatments were conducted in duplicate modules in each laboratory. […] The apical and basolateral media were collected in glass vials and frozen at −80 °C for MS analysis and transported to UPitt for testing in the SQL-SAL module.

[5] = terfenadine experiment, liver-conditioned media, 0-6 h
[6] = kidney perfused at 3.75 X 10^5 ng/ml TMAO spiked media, 0-6 h
[7] = kidney perfused with liver conditioned media, 0-6 h
[8] = 3 mM TMA added to apical compartment, 0-24 h
[9] = liver-conditioned media, 6 h perfusion

Question: For CC(C)(C(=O)O)c1ccc(C(O)CCCN2CCC(C(O)(c3ccccc3)c3ccccc3)CC2)cc1 (stereo not drawn) [Fexofenadine, fexofenadine, reference compound], which “Excreted into proximal tubule lumen, MPS” value [1] is on record?
Answer: Its value is ~ 1% Fex Excreted.

Question: What about the “Share of total fexofenadine found in lumen media” value ([1]; liver-conditioned media, 6 h) of the same compound?
Answer: The value was ~1%.

Question: And the “Excreted into proximal tubule lumen, Clinical” value [2]?
Answer: The value was 11% Fex Excreted.

Question: Which “Concentration in kidney plasma (vascular) efflux” value [1, 5] does the source give for CC(C)(C)c1ccc(C(O)CCCN2CCC(C(O)(c3ccccc3)c3ccccc3)CC2)cc1 (stereo not drawn) [Terfenadine, terfenadine, reference compound] here?
Answer: The value was “< LOQ^2 < LOQ”.

Question: What about the “Concentration in kidney proximal tubule lumen” value [1, 5] of the same compound?
Answer: Its value is “< LOQ^2 < LOQ”.

Question: What about the “Bio T (liver), Clinical” value [2] of the same compound?
Answer: The value was < 1%.

Question: And the “Intestine fate, Clinical” value [2]?
Answer: The value was “Ter → Fex”.

Question: Which “Concentration in brain neuronal efflux” value [3] does the source give for CN(C)C [TMA, trimethylamine] here?
Answer: Its value is “< LOQ < LOQ”.

Question: And the “Concentration in brain vascular efflux” value [3]?
Answer: Its value is “< LOQ < LOQ”.

Question: And the “Concentration in kidney plasma efflux” value [1, 6]?
Answer: Its value is “< LOQ < LOQ”.

Question: And the “Concentration in kidney proximal tubule lumen” value [1, 6]?
Answer: Its value is “< LOQ < LOQ”.

Question: And the “Concentration in kidney plasma efflux” value [1, 7]?
Answer: The value was “< LOQ <LOQ”.

Question: And the “Concentration in kidney proximal tubule lumen” value [1, 7]?
Answer: The value was “< LOQ <LOQ”.

Question: What about the “Share of starting TMA concentration found in basolateral media” value ([4]; 316 μg/mL (3 mM) apical, 24 h) of the same compound?
Answer: Its value is 6%.

Question: What about the “Concentration in intestine basolateral media” value [4, 8] of the same compound?
Answer: The value was 19.1 ± 2.179 µg/mL.

Question: What about the “Concentration in intestine basolateral media” value ([4]; TMA hydrochloride 316 μg/mL (3 mM) apical, 24 h) of the same compound?
Answer: Its value is 19.1 ± 2.2 µg/mL.

Question: And the “Intestine fate, MPS” value ([4]; Table 2, MPS model)?
Answer: Its value is “Uptake & Transport”.

Question: And the “Intestine fate, Clinical” value [2]?
Answer: The value was “Uptake & Transport”.

Question: What about the “Liver metabolism, Clinical” value [2] of the same compound?
Answer: The value was “TMA → TMAO”.

Question: What about the “TMA Clearance (liver), Clinical” value [2] of the same compound?
Answer: The value was < 5%.

Question: For C[N+](C)(C)[O-] [TMAO, trimethylamine-N-oxide], which “Concentration in brain neuronal efflux” value [3] is on record?
Answer: The value was 1.8 ± 0.1 µg/mL.

Question: What about the “Concentration in brain vascular efflux” value [3] of the same compound?
Answer: The value was 4.6 ± 0.2 µg/mL.

Question: What about the “Concentration in BBB/NVU neuronal efflux” value ([3]; 12 h perfusion) of the same compound?
Answer: Its value is 1.8 ± 0.1 µg/mL.

Question: And the “Concentration in BBB/NVU vascular efflux” value ([3]; 12 h perfusion)?
Answer: The value was 4.6 ± 0.2 µg/mL.

Question: What about the “Excreted into proximal tubule lumen, MPS” value [1] of the same compound?
Answer: Its value is ~46% TMAO Excreted.

Question: And the “TMAO secreted into the kidney lumen” value ([1]; independent experiment, media with 375 μg/mL TMAO)?
Answer: Its value is 46%.

Question: And the “Concentration in kidney plasma efflux” value [1, 7]?
Answer: Its value is 21.72 ± 6.967 µg/mL.

Question: And the “Concentration in kidney proximal tubule lumen” value [1, 7]?
Answer: The value was 0.45 ± 0.29 µg/mL.

Question: And the “Share of TMAO found in lumenal media” value [1, 9]?
Answer: The value was 5%.

Question: What about the “Share of TMAO found in vascular media” value [1, 9] of the same compound?
Answer: Its value is 95%.

Question: What about the “Concentration in intestine apical media” value [4, 8] of the same compound?
Answer: Its value is “< LOQ^1 < LOQ”.

Question: And the “Concentration in intestine basolateral media” value [4, 8]?
Answer: The value was “< LOQ^1 < LOQ”.

Question: And the “Excreted into proximal tubule lumen, Clinical” value [2]?
Answer: Its value is > 95% TMAO Excreted.
